For 22 molecules, MFC and MIC results are on record in patent US20120252801A1, “ANTIFUNGAL COMPOUNDS” (Katholieke Universiteit Leuven, K.U.Leuven R&D, priority 2009, published 2012).

≈ marks a conversion by molar mass, not a printed value.

For assay [1], the system named is C. glabrata. Put plainly: Minimal fungicidal concentration (MFC) against C. glabrata. It counts as cell-based, Candida glabrata. Particulars: Nakaseomyces glabratus; 24 h at 37° C. in PBS; less than 1% survival relative to DMSO control. Here is the method:
(§1) Two-fold dilution series of the compounds were prepared in 50% DMSO. 5 μl of these series were added to 95 μl PBS buffer inoculated with 1/500 cells of an overnight culture of either C. albicans, C. glabrata or C. krusei (final DMSO conc 2%). 2% DMSO served as negative control. After 24 h incubation at 37° C. of these cultures with the antifungal compounds in PBS, the cell cultures were plated on YPD agar and colony forming units (CFUs) were determined after incubation of the plates for 2 days. MFC was determined as the minimal concentration of a compound resulting in less than 1% survival of the yeast culture relative to the DMSO control.

Assay [2] relates to A. fumigatus. Put plainly: Minimal inhibitory concentration (MIC) against A. fumigatus. It counts as cell-based. Particulars: Aspergillus fumigatus; minimal concentration that inhibits growth.
Assay [3] deals with C. albicans SC5314. Put plainly: Minimal fungicidal concentration (MFC) against C. albicans. Particulars: Candida albicans, 24 h at 37° C. in PBS, less than 1% survival relative to DMSO control. It counts as cell-based. The procedure: as §1
For assay [4], the system named is Aspergillus flavus. Put plainly: Minimal inhibitory concentration (MIC) against A. flavus. Particulars: 24 h at 25° C. in ½ PDB, minimal concentration that inhibits growth. It counts as cell-based. The procedure:
(§2) To determine the MIC and MFC of a compound against Aspergillus flavus, Fusarium oxysporum or F. culmorum, a 2-fold dilution series of the compounds of the invention was incubated with the corresponding spore suspension in ½ PDB (potato dextrose broth, Difco) (2×10^4 spores/ml). […] MFC was determined as the minimal concentration of a compound resulting in less than 1% survival of the fungal culture relative to the DMSO control.

For assay [5], the system named is Fusarium oxysporum. Put plainly: Minimal inhibitory concentration (MIC) against F. oxysporum. The class given is cell-based. The note with it: 24 h at 25° C. in ½ PDB, minimal concentration that inhibits growth. Here is the method:
as §2

For `CCN1CC(c2ccccc2)OC(=O)C1CC(=O)Nc1ccc(C(C)C)cc1` (stereo not drawn) [CPD-01, 2-(4-ethyl-2-oxo-6-phenylmorpholin-3-yl)-N-(4-isopropylphenyl)acetamide], the minimal fungicidal concentration (MFC) in assay [1] and in assay [3] was 12.5 µg/mL (≈ 32.9 µM) throughout. Further, the MIC (in general, the lowest concentration that inhibits growth of the organism) was found to be 0.8 µg/mL (≈ 2.1 µM) in assay [2] and 12.5 µg/mL (≈ 32.9 µM) in assay [4].
As for `CCN1C[C@H](c2ccccc2)OC(=O)C1CC(=O)Nc1ccc(C(C)C)cc1` (stereo partly drawn) [CPD-02, 2-((6S)-4-ethyl-2-oxo-6-phenylmorpholin-3-yl)-N-(4-isopropylphenyl)acetamide], the MFC in assay [1] and in assay [3] was 12.5 µg/mL (≈ 32.9 µM) throughout. The MIC in assay [2] came out at 0.8 µg/mL (≈ 2.1 µM); in assay [4] it was 6.25 µg/mL (≈ 16.4 µM).
`CCN1C[C@H](C)OC(=O)C1CC(=O)Nc1ccc(C(C)C)cc1` (stereo partly drawn) [CPD-03, 2-((6S)-4-ethyl-6-methyl-2-oxomorpholin-3-yl)-N-(4-isopropylphenyl)acetamide]: the MFC (as a rule, the smallest concentration meeting the test's criterion for killing the fungus) in assay [1] came to 6.25 µg/mL (≈ 19.6 µM); in assay [3], 12.5 µg/mL (≈ 39.3 µM). The figures for the MIC in assay [2] and in assay [4] were 0.8 µg/mL (≈ 2.51 µM) and 6.25 µg/mL (≈ 19.6 µM), respectively.
`CCN1C[C@@H](c2ccccc2)OC(=O)C1CC(=O)Nc1ccc(C(C)C)cc1` (stereo partly drawn) [CPD-04, 2-((6R)-4-ethyl-2-oxo-6-phenylmorpholin-3-yl)-N-(4-isopropylphenyl)acetamide]: the MFC in assay [1] is 6.25 µg/mL (≈ 16.4 µM); in assay [3] it was 12.5 µg/mL (≈ 32.9 µM). Further, the MIC in assay [2] worked out at 0.8 µg/mL (≈ 2.1 µM); in assay [4], 12.5 µg/mL (≈ 32.9 µM).
Regarding `CCN1C[C@@H](C)OC(=O)C1CC(=O)Nc1ccc(C(C)C)cc1` (stereo partly drawn) [CPD-05, 2-((6R)-4-ethyl-6-methyl-2-oxomorpholin-3-yl)-N-(4-isopropylphenyl)acetamide], the figures for the MFC in assay [1] and in assay [3] were 6.25 µg/mL (≈ 19.6 µM) and 12.5 µg/mL (≈ 39.3 µM), respectively. Further, the MIC in assay [2] worked out at 0.8 µg/mL (≈ 2.51 µM); in assay [4], 6.25 µg/mL (≈ 19.6 µM).
Take `CCN1CC(C)(C)OC(=O)C1CC(=O)NC1CCc2ccccc21` (stereo not drawn) [CPD-09, N-(2,3-dihydro-1H-inden-1-yl)-2-(4-ethyl-6,6-dimethyl-2-oxomorpholin-3-yl)acetamide]: the MFC in assay [1] amounted to 50 µg/mL (≈ 151 µM); in assay [3] it was 25 µg/mL (≈ 75.7 µM). Moreover, the MIC is 50 µg/mL (≈ 151 µM) in assay [2], greater than 50 µg/mL in assay [5] and greater than 50 µg/mL in assay [4].
On to `CCN1CC(C)(C)OC(=O)C1CC(=O)Nc1ccc2scnc2c1` (stereo not drawn) [CPD-10, N-(benzo[d]thiazol-5-yl)-2-(4-ethyl-6,6-dimethyl-2-oxomorpholin-3-yl)acetamide], for which the MFC in assay [1] and in assay [3] was greater than 50 µg/mL throughout. Also, the MIC in assay [2] is 12.5 µg/mL (≈ 36 µM); in assay [5] it was greater than 50 µg/mL; in assay [4] it was greater than 50 µg/mL.
`CCN1CC(C)(C)OC(=O)C1CC(=O)NCc1ccccc1` (stereo not drawn) [CPD-12, N-benzyl-2-(4-ethyl-6,6-dimethyl-2-oxomorpholin-3-yl)acetamide]: the results for the MFC in assay [1] and in assay [3] were 25 µg/mL (≈ 82.1 µM) and 12.5 µg/mL (≈ 41.1 µM), respectively. Also, the MIC is 12.5 µg/mL (≈ 41.1 µM) in assay [2], greater than 50 µg/mL in assay [5] and 50 µg/mL (≈ 164 µM) in assay [4].
In the case of `CCN1CC(C)(C)OC(=O)C1CC(=O)NC1CCN(Cc2ccccc2)CC1` (stereo not drawn) [CPD-14, N-(1-benzylpiperidin-4-yl)-2-(4-ethyl-6,6-dimethyl-2-oxomorpholin-3-yl)acetamide], the MFC in assay [1] was greater than 50 µg/mL; in assay [3] it was 25 µg/mL (≈ 64.5 µM). The MIC in assay [2], in assay [5] and in assay [4] was greater than 50 µg/mL throughout.
For the molecule `CCN1CC(C)(C)OC(=O)C1CC(=O)NCCc1ccccc1` (stereo not drawn) [CPD-18, 2-(4-ethyl-6,6-dimethyl-2-oxomorpholin-3-yl)-N-phenethylacetamide], the results for the MFC in assay [1] and in assay [3] were 50 µg/mL (≈ 157 µM) and 25 µg/mL (≈ 78.5 µM), respectively. The values for the MIC in assay [2], in assay [5] and in assay [4] were 6.25 µg/mL (≈ 19.6 µM), greater than 50 µg/mL and 25 µg/mL (≈ 78.5 µM), respectively.
For `CCN1CC(C)(C)OC(=O)C1CC(=O)NCc1ccco1` (stereo not drawn) [CPD-23, 2-(4-ethyl-6,6-dimethyl-2-oxomorpholin-3-yl)-N-(furan-2-ylmethyl)acetamide], the MFC was greater than 50 µg/mL in assay [1] and 50 µg/mL (≈ 170 µM) in assay [3]. For the same molecule, the results for the MIC in assay [2], in assay [5] and in assay [4] were 25 µg/mL (≈ 84.9 µM), 50 µg/mL (≈ 170 µM) and 50 µg/mL (≈ 170 µM), respectively.
Turning to `CCCNC(=O)CC1C(=O)OC(C)(C)CN1CC` (stereo not drawn) [CPD-36, 2-(4-ethyl-6,6-dimethyl-2-oxomorpholin-3-yl)-N-propylacetamide], the figures for the MFC in assay [1] and in assay [3] were greater than 50 µg/mL and 25 µg/mL (≈ 97.5 µM), respectively. In addition, the MIC was 50 µg/mL (≈ 195 µM) in assay [2], greater than 50 µg/mL in assay [5] and greater than 50 µg/mL in assay [4].
On to `CCN1CC(C)(C)OC(=O)C1CC(=O)NCCC(C)(C)C` (stereo not drawn) [CPD-38, N-(3,3-dimethylbutyl)-2-(4-ethyl-6,6-dimethyl-2-oxomorpholin-3-yl)acetamide], for which the MFC in assay [1] was found to be 12.5 µg/mL (≈ 41.9 µM); in assay [3] it was 25 µg/mL (≈ 83.8 µM). Further, the MIC in assay [2], in assay [5] and in assay [4] was 50 µg/mL (≈ 168 µM) throughout.
For the molecule `CCN1CC(C)(C)OC(=O)C1CC(=O)NCC(F)(F)F` (stereo not drawn) [CPD-39, 2-(4-ethyl-6,6-dimethyl-2-oxomorpholin-3-yl)-N-(2,2,2-trifluoroethyl)acetamide], the MFC in assay [1] was greater than 50 µg/mL; in assay [3], 50 µg/mL (≈ 169 µM). Besides, the MIC in assay [2] is 25 µg/mL (≈ 84.4 µM); in assay [5], greater than 50 µg/mL; in assay [4], greater than 50 µg/mL.
Take `CCN1CC(C)(C)OC(=O)C1CC(=O)NCC1CCCCC1` (stereo not drawn) [CPD-47, N-(cyclohexylmethyl)-2-(4-ethyl-6,6-dimethyl-2-oxomorpholin-3-yl)acetamide]: the MFC stood at 6.25 µg/mL (≈ 20.1 µM) in assay [1] and 25 µg/mL (≈ 80.5 µM) in assay [3]. Also, the MIC in assay [2] was 25 µg/mL (≈ 80.5 µM); in assay [5] it was greater than 50 µg/mL; in assay [4] it was 50 µg/mL (≈ 161 µM).
As to `CCN1CC(C)(C)OC(=O)C1CC(=O)NCc1ccc(Cl)c(Cl)c1` (stereo not drawn) [CPD-50, N-(3,4-dichlorobenzyl)-2-(4-ethyl-6,6-dimethyl-2-oxomorpholin-3-yl)acetamide], the results for the minimal fungicidal concentration (MFC) in assay [1] and in assay [3] were 3.12 µg/mL (≈ 8.36 µM) and 12.5 µg/mL (≈ 33.5 µM), respectively. Moreover, the MIC in assay [2] stood at 1.6 µg/mL (≈ 4.29 µM); in assay [5], 25 µg/mL (≈ 67 µM); in assay [4], 6.25 µg/mL (≈ 16.7 µM).
In assay [3], `CCN1CC(C)(C)OC(=O)C1CC(=O)NCc1ccccc1Cl` (stereo not drawn) [CPD-57, N-(2-chlorobenzyl)-2-(4-ethyl-6,6-dimethyl-2-oxomorpholin-3-yl)acetamide] had an MFC of 25 µg/mL (≈ 73.8 µM).
Still for that read-out and setting: next, `CCN1CC(C)(C)OC(=O)C1CC(=O)NCc1ccccc1C` (stereo not drawn) [CPD-69, 2-(4-ethyl-6,6-dimethyl-2-oxomorpholin-3-yl)-N-(2-methylbenzyl)acetamide]: 25 µg/mL (≈ 78.5 µM).
Molecule `CCN1CC(C)(C)OC(=O)C1CC(=O)NCc1cccc(C)c1` (stereo not drawn) [CPD-70, 2-(4-ethyl-6,6-dimethyl-2-oxomorpholin-3-yl)-N-(3-methylbenzyl)acetamide] returned a minimum fungicidal concentration (MFC) in assay [3] of 25 µg/mL (≈ 78.5 µM).
With `CCN1CC(C)(C)OC(=O)C1CC(=O)NCc1ccc(C(F)(F)F)cc1` (stereo not drawn) [CPD-71, 2-(4-ethyl-6,6-dimethyl-2-oxomorpholin-3-yl)-N-(4-(trifluoromethyl)benzyl)acetamide], in assay [3], the MFC was 25 µg/mL (≈ 67.1 µM).
`CCN1CC(C)(C)OC(=O)C1CC(=O)NCc1ccc(OC)cc1` (stereo not drawn) [CPD-72, 2-(4-ethyl-6,6-dimethyl-2-oxomorpholin-3-yl)-N-(4-methoxybenzyl)acetamide] returned a minimal fungicidal concentration (MFC) in assay [3] of 25 µg/mL (≈ 74.8 µM).
As for `CCN1CC(C)(C)OC(=O)C1CC(=O)NCc1ccc(-c2ccccc2)cc1` (stereo not drawn) [CPD-73, N-(biphenyl-4-ylmethyl)-2-(4-ethyl-6,6-dimethyl-2-oxomorpholin-3-yl)acetamide], the MFC in assay [3] was determined as 25 µg/mL (≈ 65.7 µM).
